The record followed here is ChEMBL document CHEMBL4130597 (ACS Med Chem Lett, 2017).

The test system of assay [1] is Human immunodeficiency virus 1. Description: Antiviral activity against HIV1 infected in GFP expressing human MT4 cells assessed as inhibition of viral replication after 24 hrs in presence of 50% normal human serum. Conditions: Human immunodeficiency virus 1, MT4, 24 h. The class given is functional, organism-based.
Assay [2] deals with Protease (Human immunodeficiency virus 1) (UniProt Q9YQ12). Kind of assay: Potency index, ratio of MK-8718 IC50 to test compound IC50 for HIV1 protease.
In assay [3] the test system is Human immunodeficiency virus 1. Kind of assay: Potency index, ratio of MK-8718 EC50 to test compound EC50 for HIV1 infected in GFP expressing human MT4 cells assessed as inhibition of viral replication. It is filed as functional.
Another assay deals with Protease (Human immunodeficiency virus 1, UniProt Q9YQ12). Description: Inhibition of HIV1 protease expressed in Escherichia coli using Val-Ser-Gln-Asn-(beta-naphtyl)Ala-Pro-Ile-Val as substrate preincubated for 30 mins followed by substrate addition measured after 1 hr by mass spectrometric method.
Sequence of Protease (Q9YQ12 whole entry): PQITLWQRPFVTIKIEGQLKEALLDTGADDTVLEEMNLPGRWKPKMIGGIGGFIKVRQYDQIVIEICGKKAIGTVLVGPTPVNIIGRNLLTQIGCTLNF

Sequence of Protease (Human immunodeficiency virus 1) (Q9YQ12 as listed by the source): as the sequence (Q9YQ12 whole entry) above

Consider `C[C@@H]1CN(S(=O)(=O)c2ccccc2)[C@@H](CCc2c(F)cccc2NC(=O)CC(c2ccc(F)cc2)c2ccc(F)cc2)CN1`, for which the EC50 (usually the concentration at which the effect is half-maximal) in assay [1] was determined as 520 nM.

Turning to `C[C@@H]1CNC[C@H](CCc2c(F)cccc2NC(=O)CC(c2ccc(F)cc2)c2ccc(F)cc2)N1S(=O)(=O)c1ccccc1`, in assay [1], the EC50 turned out to be 70 nM.

As for `C[C@H]1CNC[C@H](CCc2c(F)cccc2NC(=O)CC(c2ccc(F)cc2)c2ccc(F)cc2)N1S(=O)(=O)c1ccccc1`, the EC50 in assay [1] came out at 17 nM.

On to `COC(=O)N[C@H](C(=O)N[C@@H](Cc1ccccc1)[C@@H](O)CN(Cc1ccc(-c2ccccn2)cc1)NC(=O)[C@@H](NC(=O)OC)C(C)(C)C)C(C)(C)C` [ATAZANAVIR], for which the EC50 in assay [1] was found to be 12 nM.

`O=C(CC(c1ccc(F)cc1)c1ccc(F)cc1)Nc1cccc(F)c1CC[C@H]1CN[C@@H]2CCCS(=O)(=O)N1C2`: in assay [1], the EC50 worked out at 21 nM.

For `CC(C)CN(C[C@@H](O)[C@H](Cc1ccccc1)NC(=O)O[C@H]1CO[C@H]2OCC[C@H]21)S(=O)(=O)c1ccc(N)cc1`, the EC50 in assay [1] came out at 7 nM.

With `N[C@H](C(=O)Nc1cncc(F)c1CC[C@H]1CN[C@@H]2CCCS(=O)(=O)N1C2)[C@@H](c1ccc(Cl)cc1)c1cc(F)cc(F)c1`, the Ratio IC50 in assay [2] came to 60. For the same compound, the EC50 in assay [1] amounted to 2.8 nM. The “Ratio EC50” value in assay [3] worked out at 10. Besides, on Protease, the IC50 – broadly, the concentration at which inhibition is half-maximal – is 0.012 nM.

`C[C@H]1CN(S(=O)(=O)c2ccccc2)[C@@H](CCc2c(F)cccc2NC(=O)CC(c2ccc(F)cc2)c2ccc(F)cc2)CN1`: in assay [1], the EC50 turned out to be 700 nM.

Turning to `N[C@H](C(=O)Nc1cncc(F)c1CC[C@@H]1CN[C@H](COC(=O)NCC(F)(F)F)CO1)[C@@H](c1ccc(Cl)cc1)c1cc(F)cc(F)c1`, the EC50 in assay [1] was 27 nM. The same compound returned an IC50 against Protease of 0.7 nM.

For the compound `O=C(CC(c1ccc(F)cc1)c1ccc(F)cc1)Nc1cccc(F)c1CC[C@@H]1CNCCN1S(=O)(=O)c1ccccc1`, the EC50 in assay [1] came out at 1200 nM.

Consider `O=C(CC(c1ccc(F)cc1)c1ccc(F)cc1)Nc1cccc(F)c1CC[C@H]1CNCCN1S(=O)(=O)c1ccccc1`, for which the concentration giving a half-maximal response (EC50) in assay [1] came to 27 nM.
